Reference: patent US8481576B2 (Abbott GmbH & Co. KG, priority 2004, dated 2013)
Counter-ions that a name gives are not always drawn.

molecular target: T1, h5-HT5A receptor (Homo sapiens, UniProt P47898); assay: [3H]5-CT binding assay h5-HT5A; details: membranes from HEK293 cells expressing h5-HT5A, 2.5 nM [3H]5-CT; read-out: Binding affinity 5-HT5A (Ki)
T1 construct: expressed in transfected cells; host or cells: HEK293
Procedure: 1. [^3H]5-CT binding assay h5-HT5A
Membranes from HEK293-cells, which permanently express the h5-HT5A receptor gene, were incubated in 100 mM Tris-HCl-buffer (pH 7.7), containing 1 mM EDTA in the presence of 2.5 nM [^3H]5-CT (600 μl total volume). The total binding is defined as the binding which is observed when the membranes are incubated alone in the presence of the radioligand. The inhibition induced by the compound is determined by incubation of cell membranes in the presence of the radioligand, and of different concentrations of the compound of interest. Unspecific binding is defined by the binding of [^3H]5-CT, which is obtained by incubation of the membranes as for the total binding but in the presence of 10 μM methiothepine. Following an incubation of 75 minutes at 30° C. the membrane suspension is filtered through GF/B-filters, wrapped in 0.03% PEI, wherein a Skatron® harvest system is used. The radioactivity retained in the filter is quantified by liquid scintillation counting.
In both assays, different concentrations of the test substances are used, and the Ki or the IC50 values are determined.

T1 sequence (P47898 whole entry): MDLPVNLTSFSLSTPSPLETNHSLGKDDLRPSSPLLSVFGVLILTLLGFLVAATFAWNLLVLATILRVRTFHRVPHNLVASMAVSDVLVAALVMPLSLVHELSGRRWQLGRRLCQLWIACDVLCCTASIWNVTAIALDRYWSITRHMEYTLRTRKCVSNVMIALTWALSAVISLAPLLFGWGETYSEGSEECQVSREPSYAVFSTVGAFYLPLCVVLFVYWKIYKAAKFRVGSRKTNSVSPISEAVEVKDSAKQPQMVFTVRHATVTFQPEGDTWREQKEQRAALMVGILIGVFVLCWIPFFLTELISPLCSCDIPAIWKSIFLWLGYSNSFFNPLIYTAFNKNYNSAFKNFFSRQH

| Molecule | Ki [nM] |
| --- | --- |
| COc1ccccc1CNC(=N)Nc1ncc(C)s1 [Example 54, N-(2-methoxybenzyl)-N′-(5-methyl-1,3-thiazole-2-yl)guanidine (2E)-But-2-endioate] | < 50 |
| COc1ccccc1CNC(=N)Nc1nc(C(C)(C)C)cs1 [Example 37, N-(4-tert-butyl-1,3-thiazole-2-yl)-N′-(2-methoxybenzyl)guanidine (2E)-But-2-endioate] | 50 to 500 |
| COc1cccc(OC)c1CNC(=N)Nc1nc(C)c(C)o1 [Example 174, N-(2,6-dimethoxybenzyl)-N′-(4,5-dimethyl-1,3-oxazole-2-yl)guanidine acetate] | < 50 |
| COc1ccccc1CNC(=N)Nc1nc(-c2ccccc2)c[nH]1 [Example 188, N-(2-methoxybenzyl)-N′-(4-phenyl-1H-imidazole-2-yl)guanidine acetate] | < 50 |
| 2-(2-{[[(2,6-dimethoxybenzyl)amino](imino)methyl]amino}-1,3-thiazole-4-yl)-N-(2-methoxybenzyl)acetamide (2E)-But-2-endioate [Example 51] | < 50 |
| COc1ccc(-c2cc(NC(=N)NCc3ccccc3OC)n[nH]2)cc1 [Example 208, N-(2-methoxybenzyl)-N′-[5-(4-methoxyphenyl)-1H-pyrazole-3-yl]guanidine] | < 50 |
| COc1cccc(Cl)c1CNC(=N)Nc1cc(C(C)(C)C)[nH]n1 [Example 213, N-(5-tert-butyl-1H-pyrazole-3-yl)-N′-(2-chloro-6-methoxybenzyl)guanidine] | < 50 |
| COc1cccc(Cl)c1CNC(=N)Nc1nc(-c2ccc(F)cc2)c[nH]1 [Example 195, N-(2-chlor-6-methoxybenzyl)-N′-[4-(4-fluorphenyl)-1H-imidazole-2-yl]guanidine acetate] | < 50 |
| COc1ccccc1CNC(=N)Nc1nc(-c2ccccn2)cs1 [Example 41, N-(2-methoxybenzyl)-N′-(4-pyridine-2-yl-1,3-thiazole-2-yl)guanidine] | < 50 |
| COc1cccc(OC)c1CNC(=N)Nc1cc(-c2ccc(C)cc2)[nH]n1 [Example 207, N-(2,6-dimethoxybenzyl)-N′-[5-(4-methylphenyl)-1H-pyrazole-3-yl]guanidine] | < 50 |
| COc1cccc(OC)c1CNC(=N)Nc1nc(-c2ccccc2)c[nH]1 [Example 187, N-(2,6-dimethoxybenzyl)-N′-(4-phenyl-1H-imidazole-2-yl)guanidine acetate] | < 50 |
| COc1cccc(OC)c1CNC(=N)Nc1nc2ccccc2[nH]1 [Example 182, N-1H-benzimidazole-2-yl-N′-(2,6-dimethoxybenzyl)guanidine diacetate] | < 50 |
| COc1ccccc1CNC(=N)Nc1nc(-c2ccc3ccccc3c2)cs1 [Example 33, N-(2-methoxybenzyl)-N′-[4-(2-naphthyl)-1,3-thiazole-2-yl]guanidine] | < 50 |
| COc1cccc(OC)c1CNC(=N)Nc1nc(C)cs1 [Example 32, N-(2,6-dimethoxybenzyl)-N′-(4-methyl-1,3-thiazole-2-yl)guanidine] | < 50 |
| COc1cccc(OC)c1CNC(=N)Nc1nnc[nH]1 [Example 189, N-(2,6-Dimethoxybenzyl)-N′-4H-1,2,4-triazole-3-ylguanidine acetate] | < 50 |
| COc1cccc(OC)c1CNC(=N)Nc1nc(-c2ccc(OC(F)(F)F)cc2)cs1 [Example 64, N-(2,6-dimethoxybenzyl)-N′-{4-[4-(trifluoromethoxy)phenyl]-1,3-thiazole-2-yl}guanidine hydrobromide] | < 50 |
| COc1cccc(OC)c1CNC(=N)Nc1nc(C2CCNCC2)cs1 [Example 162, N-(2,6-dimethoxybenzyl)-N′-(4-piperidine-4-yl-1,3-thiazole-2-yl)guanidine hydrochloride] | < 50 |

| Molecule | Ki [nM] |
| --- | --- |
| COc1ccccc1CNC(=N)Nc1nc(-c2cccnc2)cs1 [Example 48, N-(2-methoxybenzyl)-N′-(4-pyridine-3-yl-1,3-thiazole-2-yl)guanidine] | 50 to 500 |
| COc1ccc(-c2cc(NC(=N)NCc3c(OC)cccc3OC)n[nH]2)cc1 [Example 209, N-(2,6-dimethoxybenzyl)-N′-[5-(4-methoxyphenyl)-1H-pyrazole-3-yl]guanidine] | < 50 |
| COc1cccc(Cl)c1CNC(=N)Nc1nc(-c2ccccn2)cs1 [Example 133, N-(2-chloro-6-methoxybenzyl)-N′-(4-pyridine-2-yl-1,3-thiazole-2-yl)guanidine] | < 50 |
| N=C(NCc1ccccc1C(F)(F)F)Nc1nccs1 [Example 18, N-1,3-thiazole-2-yl-N′[2-(trifluoromethyl)benzyl]guanidine] | > 500 |
| CNC(=Nc1nccs1)NCc1ccccc1OC [Example 24, N-(2-methoxybenzyl)-N′-methyl-N″-1,3-thiazole-2-ylguanidine (2E)-But-2-endioate] | > 500 |
| N=C(NCc1ccccc1Cl)Nc1nccs1 [Example 7, N-(2-chlorobenzyl)-N′-1,3-thiazole-2-ylguanidine hydrochloride] | > 500 |
| CCc1csc(NC(=N)NCc2c(OC)cccc2OC)n1 [Example 3, N-(2,6-dimethoxybenzyl)-N′-(4-ethyl-1,3-thiazole-2-yl)-guanidine] | < 50 |
| COc1ccccc1CNC(=N)Nc1nc(-c2cccc(F)c2)cs1 [Example 99, N-[4-(3-fluorophenyl)-1,3-thiazole-2-yl]-N′-(2-methoxybenzyl)guanidine] | 50 to 500 |
| COc1cccc(OC)c1CNC(=N)Nc1ccn(C)n1 [Example 215, N-(2,6-dimethoxybenzyl)-N′-(1-methyl-1H-pyrazole-3-yl)guanidine] | < 50 |
| COc1cccc(OC)c1CNC(=N)Nc1nc2c(s1)CCCC2 [Example 94, N-(2,6-dimethoxybenzyl)-N′-(4,5,6,7-tetrahydro-1,3-benzothiazole-2-yl)guanidine acetate] | < 50 |
| COc1cccc(OC)c1CNC(=N)Nc1nc(-c2cc(Cl)ccc2Cl)cs1 [Example 21, N-[4-(2,5-dichlorophenyl)-1,3-thiazole-2-yl]-N′-(2,6-dimethoxybenzyl)guanidine hydrobromide] | < 50 |
| COc1cccc(OC)c1CNC(=N)Nc1nc(C(C)(C)C)cs1 [Example 36, N-(4-tert-butyl-1,3-thiazole-2-yl)-N′-(2,6-dimethoxybenzyl)guanidine] | < 50 |
| COc1cc(F)ccc1-c1csc(NC(=N)NCc2c(OC)cccc2OC)n1 [Example 111, N-(2,6-dimethoxybenzyl)-N′-[4-(4-fluoro-2-methoxyphenyl)-1,3-thiazole-2-yl]guanidine] | < 50 |
| COc1cccc(OC)c1CNC(=N)Nc1nc(-c2cc3ccccc3o2)cs1 [Example 67, N-[4-(1-benzofuran-2-yl)-1,3-thiazole-2-yl]-N′-(2,6-dimethoxybenzyl)guanidine hydrobromide] | < 50 |
| COc1cccc(OC)c1CNC(=N)Nc1nc(C)co1 [Example 190, N-(2,6-dimethoxybenzyl)-N′-(4-methyl-1,3-oxazole-2-yl)guanidine acetate] | < 50 |
| COc1cccc(OC)c1CNC(=N)Nc1nc2c(s1)CN(C(C)=O)CC2 [Example 224, N-(5-acetyl-4,5,6,7-tetrahydro[1,3]thiazolo[5,4-c]pyridine-2-yl)-N′-(2,6-dimethoxybenzyl)guanidine] | < 50 |
| COc1cccc(OC)c1CNC(=N)Nc1nc(-c2ccccn2)cs1 [Example 42, N-(2,6-dimethoxybenzyl)-N′-(4-pyridine-2-yl-1,3-thiazole-2-yl)guanidine (2E)-But-2-endioate] | < 50 |
